Results published in patent publication US8354570B2, “Disease resistant plants” (Enza Zaden Beheer B.V., priority 2005, dated 2013).
Entries after “also recorded” stand apart in the source; their conditions may differ.

What was measured:
[1] = tested on: H. parasitica isolate Cala2; experiment: Microscopy of trypan blue stained seedlings: growth and development of H. parasitica in planta; assay type: in vivo, Hyaloperonospora parasitica; conditions: for haustorial development: 5 mM infiltration, microscopy, 40x magnification, FIG. 7b
Procedure: (§1) To test if the effect is specific for homoserine the stereo-isomer D-homoserine was tested. Whole seedlings were infiltrated with water, 5 mM D-homoserine and 5 mM L-homoserine. […] The infiltration was applied to two Arabidopsis accessions, Ler eds1-2 and Ws eds1-1, susceptible to Cala2 and Waco9, respectively. Conidiophore formation was determined as an indicator for H. parsitica susceptibility. Conidiophores were counted 5 days post inoculation with H. parasitica and 2 days post infiltration with water, D-homoserine or L-homoserine. (FIG. 6). […] This was further confirmed by studying pathogen growth in planta by trypan blue staining of Arabidopsis seedlings. Plants were inoculated with isolate Cala2. Two days later the plants were treated by infiltration with water, 5 mM D-homoserine, and 5 mM L-homoserine.
Again it is shown that increased levels of homoserine in planta lead to pathogen resistance.

[2] = tested on: H. parasitica isolates Cala2 and Waco9; experiment: Conidiophore counting on H. parasitica-inoculated Arabidopsis seedlings infiltrated with homoserine; assay type: in vivo, Hyaloperonospora parasitica
Procedure: The inoculated seedlings were infiltrated with dH2O, D-homoserine (5 mM) or L-homoserine (5 mM) at 3 days post inoculation with the pathogen.
as §1

[3] = 5 mM infiltration of whole Arabidopsis seedlings

`N[C@H](CCO)C(=O)O` [D-homoserine, reference compound] was tested, and the haustorial development [1] was “not”, the pathogen growth [2, 3] was “did not show a large reduction in pathogen growth” and the “resistance / susceptibility to H. parasitica” value [2, 3] was “susceptible to H. parasitica”.

For `N[C@@H](CCO)C(=O)O` [L-homoserine], the “pathogen growth in planta (trypan blue staining)” value ([1]; 5 mM infiltration two days after inoculation with Cala2, scored 5 days post inoculation, FIG. 7) was “strongly reduced pathogen growth”, the “conidiophore formation (microscopy)” value ([1]; 5 mM infiltration two days after inoculation with Cala2, scored 5 days post inoculation, Ler eds1-2 seedlings, trypan blue, FIG. 7) was “No conidiophore formation was detected” and the haustorial development [1] was “affected; also recorded: disturbed”. For the same molecule, the “resistance / susceptibility to H. parasitica” value [2, 3] was “resistant; also recorded: resulted in resistance to H. parasitica” and the “conidiophore formation (number of conidiophores per seedling)” value ([2]; 5 mM infiltration of whole seedlings, counted 5 days post inoculation, 2 days post infiltration, Ler eds1-2 (Cala2) and Ws eds1-1 (Waco9), FIG. 6) was “complete absence of conidiophore formation; also recorded: reduction of conidiophore formation”.
